Measurements reported in patent US10874743B2, “IRAK degraders and uses thereof” (Kymera Therapeutics, Inc., priority 2017, dated 2020).

Biological target: T1, IRAK4 (Homo sapiens, UniProt Q9NWZ3)
T1 sequence (Q9NWZ3 1-460): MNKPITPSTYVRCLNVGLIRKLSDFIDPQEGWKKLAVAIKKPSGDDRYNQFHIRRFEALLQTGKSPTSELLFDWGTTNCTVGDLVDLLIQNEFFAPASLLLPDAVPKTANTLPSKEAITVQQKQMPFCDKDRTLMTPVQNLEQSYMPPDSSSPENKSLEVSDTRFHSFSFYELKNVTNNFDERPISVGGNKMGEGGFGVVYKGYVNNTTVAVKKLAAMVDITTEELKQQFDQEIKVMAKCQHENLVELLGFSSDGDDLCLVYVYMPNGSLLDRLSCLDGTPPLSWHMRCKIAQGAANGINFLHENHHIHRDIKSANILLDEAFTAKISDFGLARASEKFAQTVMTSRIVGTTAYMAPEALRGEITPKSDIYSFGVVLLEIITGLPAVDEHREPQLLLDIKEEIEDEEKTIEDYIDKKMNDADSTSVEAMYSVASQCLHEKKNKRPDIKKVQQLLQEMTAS
Test: OCI-LY-10 degradation assay (western blot, % IRAK4 degraded after 4 hours)
Type: cell-based
Set-up: endogenous in cells; host or cells: OCI-LY10
Conditions: OCI-LY10 cells; for OCI-LY10 % IRAK4 Degradation: IRAK4 degraded after 4 hours, western blot; for OCI-LY10 % IRAK4 Degradation (0.01 uM) / OCI-LY10 % IRAK4 Degradation (0.1 uM) / OCI-LY10 % IRAK4 Degradation (1 uM): 4 hours; for OCI-LY10 % IRAK4 Degradation (0.01 uM): 0.01 uM compound; for OCI-LY10 % IRAK4 Degradation (0.1 uM): 0.1 uM compound; for OCI-LY10 % IRAK4 Degradation (1 uM): 1 uM compound
Procedure, shortened: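 OCI-LY10 cells (RPMI-1640, 20% FBS, 55 μM 2-ME) treated with compound at 0.003-10 μM final for 4 h at 37° C, then lysed in RIPA buffer. IRAK4 level read by fluorescent western blot (20-25 μg protein) and binned as % degraded: A >50%, B >20-50%, C <20%.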

In the case of NC(=O)[C@@H](O)C[C@H]1CCc2sc3ncnc(O[C@H]4CC[C@H](N5CCN(CCOCCOCCNc6cccc7c6C(=O)N(C6CCC(=O)NC6=O)C7=O)CC5)CC4)c3c21 (stereo partly drawn) [I-90, (2S)-3-[(8R)-1-[4-[4-[2-[2-[2-[[2-(2,6-dioxo-3-piperidyl)-1,3-dioxo-isoindolin-4-yl]amino]ethoxy]ethoxy]ethyl]piperazin-1-yl]cyclohexoxy]-7,8-dihydro-6H-cyclopenta[4,5]thieno[1,2-c]pyrimidin-8-yl]-2-hydroxy-propanamide], the “OCI-LY10 % IRAK4 Degradation” value is reported as “B (>20-50% degradation)”.

For O=C(COc1cccc2c1C(=O)N(C1CCC(=O)NC1=O)C2=O)NCCCCNC(=O)[C@H]1CC[C@H](NC(=O)c2cnc(Nc3ccc4cnccc4n3)cc2NC2CC2)CC1 (some centres unmarked) [I-9], the “OCI-LY10 % IRAK4 Degradation” value was “C (<20% degradation)”.

With O=C1CCC(N2C(=O)c3cccc(NCCOCCN4CCO[C@H](CNCc5ccc(-n6cc(NC(=O)c7coc(-c8ccnc(NCC9CC9)c8)n7)c(C(F)F)n6)cc5)C4)c3C2=O)C(=O)N1 (some centres unmarked) [I-329] the “OCI-LY10 % IRAK4 Degradation (0.01 uM)” value was “B (>20-50% degradation)”, the “OCI-LY10 % IRAK4 Degradation (0.1 uM)” value was “A (>50% degradation)” and the “OCI-LY10 % IRAK4 Degradation (1 uM)” value was “A (>50% degradation)”.

With CN(CCOCCCc1cccc2c1C(=O)N(C1CCC(=O)NC1=O)C2=O)C(=O)c1ccc(-n2cc(NC(=O)c3coc(-c4ccnc(NCC5CC5)c4)n3)c(C(N)=O)n2)cc1 (centres unmarked) [I-229] the “OCI-LY10 % IRAK4 Degradation (0.01 uM)” value was “C (<20% degradation)”, the “OCI-LY10 % IRAK4 Degradation (0.1 uM)” value was “C (<20% degradation)” and the “OCI-LY10 % IRAK4 Degradation (1 uM)” value was “C (<20% degradation)”.

For O=C1CCC(N2C(=O)c3ccc(CCCNCc4ccc(-n5cc(NC(=O)c6coc(-c7ccncc7)n6)c(C(F)F)n5)cc4)cc3C2=O)C(=O)N1 (centres unmarked) [I-380], the “OCI-LY10 % IRAK4 Degradation (0.01 uM)” value was “C (<20% degradation)”, the “OCI-LY10 % IRAK4 Degradation (0.1 uM)” value was “C (<20% degradation)” and the “OCI-LY10 % IRAK4 Degradation (1 uM)” value was “C (<20% degradation)”.

With CN(CCOCCOCCOCCOCCNc1cccc2c1C(=O)N(C1CCC(=O)NC1=O)C2=O)C(=O)[C@H]1CC[C@H](NC(=O)c2cnc(-n3ncc4cc(C#N)cnc43)cc2NC2CC2)CC1 (some centres unmarked) [I-38] the “OCI-LY10 % IRAK4 Degradation” value was “C (<20% degradation)”.

With O=C1CCC(N2C(=O)c3cccc(CCCN4CCC(n5cc(NC(=O)c6coc(-c7ccnc(NCC8CC8)c7)n6)c(C(F)F)n5)CC4)c3C2=O)C(=O)N1 (centres unmarked) [I-259] the “OCI-LY10 % IRAK4 Degradation (0.01 uM)” value was “C (<20% degradation)”, the “OCI-LY10 % IRAK4 Degradation (0.1 uM)” value was “C (<20% degradation)” and the “OCI-LY10 % IRAK4 Degradation (1 uM)” value was “C (<20% degradation)”.

CN(CCOCCOCCCc1ccc2c(c1)C(=O)N(C1CCC(=O)NC1=O)C2=O)Cc1ccc(-n2cc(NC(=O)c3coc(-c4ccncc4)n3)c(C(N)=O)n2)cc1 (centres unmarked) [I-309] was tested, and the “OCI-LY10 % IRAK4 Degradation (0.01 uM)” value was “B (>20-50% degradation)”, the “OCI-LY10 % IRAK4 Degradation (0.1 uM)” value was “A (>50% degradation)” and the “OCI-LY10 % IRAK4 Degradation (1 uM)” value was “A (>50% degradation)”.

For N#Cc1cnc2c(cnn2-c2cc(NC3CC3)c(C(=O)N[C@H]3CC[C@H](COCCOCCOCCOCCNC(=O)COc4cccc5c4C(=O)N(C4CCC(=O)NC4=O)C5=O)CC3)cn2)c1 (some centres unmarked) [I-18], the “OCI-LY10 % IRAK4 Degradation” value was “B (>20-50% degradation)”.

NC(=O)c1nn(-c2ccc(C(=O)NCCOCCOCCOCCOCC#Cc3ccc4c(c3)C(=O)N(C3CCC(=O)NC3=O)C4=O)cc2)cc1NC(=O)c1coc(-c2ccnc(NCC(F)(F)F)c2)n1 (centres unmarked) [I-149] was tested, and the “OCI-LY10 % IRAK4 Degradation” value was “A (>50% degradation)”.

For NC(=O)c1nn(-c2ccc(CNCCOCCOCCOCCOCCCc3cccc4c3C(=O)N(C3CCC(=O)NC3=O)C4=O)cc2)cc1NC(=O)c1coc(-c2ccnc(NCC(F)(F)F)c2)n1 (centres unmarked) [I-322], the “OCI-LY10 % IRAK4 Degradation (0.01 uM)” value was “C (<20% degradation)”, the “OCI-LY10 % IRAK4 Degradation (0.1 uM)” value was “C (<20% degradation)” and the “OCI-LY10 % IRAK4 Degradation (1 uM)” value was “A (>50% degradation)”.

With O=C1CCC(N2C(=O)c3ccc(NCCOCCOCCNCc4ccc(-n5cc(NC(=O)c6coc(-c7ccnc(NCC8CC8)c7)n6)c(C(F)F)n5)cc4)cc3C2=O)C(=O)N1 (centres unmarked) [I-354] the “OCI-LY10 % IRAK4 Degradation (0.01 uM)” value was “C (<20% degradation)”, the “OCI-LY10 % IRAK4 Degradation (0.1 uM)” value was “A (>50% degradation)” and the “OCI-LY10 % IRAK4 Degradation (1 uM)” value was “A (>50% degradation)”.

With NC(=O)c1nn(C2CCN(CCOCCOCCOCCNc3cccc4c3C(=O)N(C3CCC(=O)NC3=O)C4=O)CC2)cc1NC(=O)c1coc(-c2ccnc(NCC(F)(F)F)c2)n1 (centres unmarked) [I-170, N-[3-carbamoyl-1-[1-[2-[2-[2-[2-[[2-(2,6-dioxo-3-piperidyl)-1,3-dioxo-isoindolin-4-yl]amino]ethoxy]ethoxy]ethoxy]ethyl]-4-piperidyl]pyrazol-4-yl]-2-[2-(2,2,2-trifluoroethylamino)-4-pyridyl]oxazole-4-carboxamide] the “OCI-LY10 % IRAK4 Degradation” value was “B (>20-50% degradation)”.

O=C1CCC(N2C(=O)c3cccc(N4CCN(CCOCCOCCNCc5ccc(-n6cc(NC(=O)c7coc(-c8ccnc(NCC9CC9)c8)n7)c(C(F)F)n6)cc5)CC4)c3C2=O)C(=O)N1 (centres unmarked) [I-336] was tested, and the “OCI-LY10 % IRAK4 Degradation (0.01 uM)” value was “C (<20% degradation)”, the “OCI-LY10 % IRAK4 Degradation (0.1 uM)” value was “C (<20% degradation)” and the “OCI-LY10 % IRAK4 Degradation (1 uM)” value was “B (>20-50% degradation)”.

For CC(C)(OCCOCCOCCNc1cccc2c1C(=O)N(C1CCC(=O)NC1=O)C2=O)C(F)CNC(=O)c1cnc(Nc2ncc(C#N)cc2F)cc1NC1CC1 (centres unmarked) [I-67], the “OCI-LY10 % IRAK4 Degradation” value was “C (<20% degradation)”.

In the case of Cn1cc(-c2nc(C(=O)Nc3cn(-c4ccc(CNCCOCCOCCNc5ccc6c(c5)C(=O)N(C5CCC(=O)NC5=O)C6=O)cc4)nc3C(F)F)co2)cn1 (centres unmarked) [I-353], the “OCI-LY10 % IRAK4 Degradation (0.01 uM)” value is reported as “C (<20% degradation)”, the “OCI-LY10 % IRAK4 Degradation (0.1 uM)” value is reported as “C (<20% degradation)” and the “OCI-LY10 % IRAK4 Degradation (1 uM)” value is reported as “C (<20% degradation)”.

For CN(CCOCCOCCNc1cccc2c1C(=O)N(C1CCC(=O)NC1=O)C2=O)C(=O)[C@H]1C[C@H](NC(=O)c2cnc(-n3ncc4cc(C#N)cnc43)cc2NC2CC2)C1 (some centres unmarked) [I-37], the “OCI-LY10 % IRAK4 Degradation” value was “C (<20% degradation)”.

For CC[C@@H]1[C@H](F)C(=O)N(CCOCCOCCOCCOCCNc2cccc3c2C(=O)N(C2CCC(=O)NC2=O)C3=O)[C@@H]1COc1nccc2cc(C(N)=O)c(OC)cc12 (stereo partly drawn) [I-89, 1-[[(2S,3S,4S)-1-[2-[2-[2-[2-[2-[[2-(2,6-dioxo-3-piperidyl)-1,3-dioxo-isoindolin-4-yl]amino]ethoxy]ethoxy]ethoxy]ethoxy]ethyl]-3-ethyl-4-fluoro-5-oxo-pyrrolidin-2-yl]methoxy]-7-methoxy-isoquinoline-6-carboxamide], the “OCI-LY10 % IRAK4 Degradation” value was “C (<20% degradation)”.

CN(CCOCCOCCCc1ccc2c(c1)C(=O)N(C1CCC(=O)NC1=O)C2=O)Cc1ccc(-n2cc(NC(=O)c3coc(-c4ccnc(NCC5CC5)c4)n3)c(C(F)F)n2)cc1 (centres unmarked) [I-310] was tested, and the “OCI-LY10 % IRAK4 Degradation (0.01 uM)” value was “C (<20% degradation)”, the “OCI-LY10 % IRAK4 Degradation (0.1 uM)” value was “A (>50% degradation)” and the “OCI-LY10 % IRAK4 Degradation (1 uM)” value was “A (>50% degradation)”.

CN(CCCc1ccc2c(c1)C(=O)N(C1CCC(=O)NC1=O)C2=O)Cc1ccc(-n2cc(NC(=O)c3coc(-c4ccncc4)n3)c(C(N)=O)n2)cc1 (centres unmarked) [I-370] was tested, and the “OCI-LY10 % IRAK4 Degradation (0.01 uM)” value was “C (<20% degradation)”, the “OCI-LY10 % IRAK4 Degradation (0.1 uM)” value was “B (>20-50% degradation)” and the “OCI-LY10 % IRAK4 Degradation (1 uM)” value was “B (>20-50% degradation)”.

For Cc1ncsc1-c1ccc(CNC(=O)[C@@H]2C[C@@H](O)CN2C(=O)[C@@H](NC(=O)COCCOCCOCCOCCOCCN2CCN([C@H]3CC[C@H](Oc4ncnc5sc6c(c45)[C@@H](C[C@H](O)C(N)=O)CC6)CC3)CC2)C(C)(C)C)cc1 [I-124, (2S,4R)-1-[(2S)-2-[[2-[2-[2-[2-[2-[2-[4-[4-[[(8R)-8-[(2S)-3-amino-2-hydroxy-3-oxo-propyl]-7,8-dihydro-6H-cyclopenta[4,5]thieno[1,2-c]pyrimidin-1-yl]oxy]cyclohexyl]piperazin-1-yl]ethoxy]ethoxy]ethoxy]ethoxy]ethoxy]acetyl]amino]-3,3-dimethyl-butanoyl]-4-hydroxy-N-[[4-(4-methylthiazol-5-yl)phenyl]methyl]pyrrolidine-2-carboxamide], the “OCI-LY10 % IRAK4 Degradation” value was “C (<20% degradation)”.

With NC(=O)c1nn(-c2ccc(COCCOCCOCCNc3cccc4c3C(=O)N(C3CCC(=O)NC3=O)C4=O)cc2)cc1NC(=O)c1coc(-c2ccnc(NCC(F)(F)F)c2)n1 (centres unmarked) [I-92, N-[3-carbamoyl-1-[4-[2-[2-[2-[[2-(2,6-dioxo-3-piperidyl)-1,3-dioxo-isoindolin-4-yl]amino]ethoxy]ethoxy]ethoxymethyl]phenyl]pyrazol-4-yl]-2-[2-(2,2,2-trifluoroethylamino)-4-pyridyl]oxazole-4-carboxamide] the “OCI-LY10 % IRAK4 Degradation” value was “A (>50% degradation)”.

For N#Cc1cnc2c(cnn2-c2cc(NC3CC3)c(C(=O)NCC(F)COCCOCCNc3cccc4c3C(=O)N(C3CCC(=O)NC3=O)C4=O)cn2)c1 (centres unmarked) [I-76], the “OCI-LY10 % IRAK4 Degradation” value was “C (<20% degradation)”.

For CC(C)(OCCCOCCCNc1cccc2c1C(=O)N(C1CCC(=O)NC1=O)C2=O)C(F)CNC(=O)c1cnc(-n2ncc3cc(C#N)cnc32)cc1NC1CC1 (centres unmarked) [I-86], the “OCI-LY10 % IRAK4 Degradation” value was “C (<20% degradation)”.

CC(OCCNc1cccc2c1C(=O)N(C1CCC(=O)NC1=O)C2=O)C(F)CNC(=O)c1cnc(-n2ncc3cc(C#N)cnc32)cc1NC1CC1 (centres unmarked) [I-83] was tested, and the “OCI-LY10 % IRAK4 Degradation” value was “C (<20% degradation)”.

Cn1c(=O)n(C2CCC(=O)NC2=O)c2ccc(CCCOCCOCCNC(=O)c3ccc(-n4cc(NC(=O)c5coc(-c6ccnc(NCC(F)(F)F)c6)n5)c(C(N)=O)n4)cc3)cc21 (centres unmarked) [I-248] was tested, and the “OCI-LY10 % IRAK4 Degradation (0.01 uM)” value was “B (>20-50% degradation)”, the “OCI-LY10 % IRAK4 Degradation (0.1 uM)” value was “A (>50% degradation)” and the “OCI-LY10 % IRAK4 Degradation (1 uM)” value was “A (>50% degradation)”.
